Where a name gives a salt, the structure may show the parent alone.
Columns and labels:
[1] = biological target: T1, ZAP-70 (Homo sapiens, UniProt P43403); assay: ZAP-70 kinobeads assay; assay type: binding; conditions: competition with immobilized aminopyrido-pyrimidine ligand 24 in cell lysate; ZAP-70 detected by dot blot
T1 construct: endogenous in cells; host or cells: cell lysate
T1 sequence (P43403 1-619): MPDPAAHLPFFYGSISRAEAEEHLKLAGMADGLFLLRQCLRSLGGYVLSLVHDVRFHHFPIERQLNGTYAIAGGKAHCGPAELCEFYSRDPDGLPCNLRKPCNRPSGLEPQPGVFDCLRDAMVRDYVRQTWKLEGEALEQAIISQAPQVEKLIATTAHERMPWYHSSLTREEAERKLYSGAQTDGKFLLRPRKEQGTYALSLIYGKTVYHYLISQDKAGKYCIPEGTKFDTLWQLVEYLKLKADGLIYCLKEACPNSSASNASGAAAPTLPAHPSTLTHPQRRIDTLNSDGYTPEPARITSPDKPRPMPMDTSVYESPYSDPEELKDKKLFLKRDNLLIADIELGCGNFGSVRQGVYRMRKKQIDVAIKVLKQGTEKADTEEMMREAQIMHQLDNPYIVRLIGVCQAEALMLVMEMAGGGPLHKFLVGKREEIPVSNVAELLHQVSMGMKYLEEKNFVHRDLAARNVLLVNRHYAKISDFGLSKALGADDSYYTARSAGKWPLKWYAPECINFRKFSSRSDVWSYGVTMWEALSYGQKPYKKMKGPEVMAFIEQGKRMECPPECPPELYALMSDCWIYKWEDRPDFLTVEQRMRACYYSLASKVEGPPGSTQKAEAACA
Procedure, shortened: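 Cell lysate aliquots incubated with test compounds at various concentrations plus affinity beads carrying immobilized aminopyrido-pyrimidine ligand 24. Bead-captured proteins eluted; ZAP-70 quantified by specific antibody dot blot with infrared detection.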

[2] = test system: Jurkat cells; assay: Calcium release assay (Fluo-4 flow cytometry after anti-CD3 stimulation); assay type: cell-based; conditions: Homo sapiens, Jurkat cell line J77, anti-CD3 activation, read-out: IC50 (Calcium ion release in cells)
Procedure, shortened: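 Jurkat J77 cells loaded with Fluo-4/Pluronic F-127 for 30 min at 37 °C, then incubated with compound at room temperature in the dark in PBS–CaCl2 with 10% FCS. Stimulation with anti-CD3 (0.2 μg/ml final) plus GAM (0.75 μg/ml final) at 37 °C, then flow-cytometric Ca2+ fluorescence acquired for 200 s.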

IC50 [1]	IC50 [2]	Compound
< 100 nM	< 100 nM	CN1CCN(CCCOc2ccc(Nc3ncc(Cl)c(Nc4ccccc4NS(C)(=O)=O)n3)cc2)CC1 [Example 136, N-(2-(5-chloro-2-(4-(3-(4-methylpiperazin-1-yl)propoxy)phenylamino)pyrimidin-4-ylamino)phenyl)methanesulfonamide]
100 to 1000 nM	100 to 1000 nM	COc1cc(Nc2nccc(Nc3cccc(C)c3NS(C)(=O)=O)n2)cc(OCCN2CCCCC2)c1 [Example 177, N-(2-(2-(3-methoxy-5-(2-(piperidin-1-yl)ethoxy)phenylamino)pyrimidin-4-ylamino)-6-methylphenyl)methanesulfonamide formate salt]
100 to 1000 nM	100 to 1000 nM	COc1cccc(Nc2nc(Nc3cc(OC)c(OC)c(OC)c3)ncc2F)c1NS(C)(=O)=O [Example 172, N-(2-(5-fluoro-2-(3,4,5-trimethoxyphenylamino)pyrimidin-4-ylamino)-6-methoxyphenyl)methanesulfonamide]
100 to 1000 nM	100 to 1000 nM	Cc1cc(C)cc(Nc2ncc(C)c(Nc3ccccc3NS(C)(=O)=O)n2)c1 [Example 67, N-(2-(2-(3,5-dimethylphenylamino)-5-methylpyrimidin-4-ylamino)phenyl)methanesulfonamide]
1000 to 10000 nM	100 to 1000 nM	Cc1nc2cc(Nc3ncc(F)c(Nc4ccccc4NS(C)(=O)=O)n3)ccc2s1 [Example 18, N-(2-(5-fluoro-2-(2-methylbenzo[d]thiazol-5-ylamino)pyrimidin-4-ylamino)phenyl)methanesulfonamide]
100 to 1000 nM	100 to 1000 nM	CN1CCN(CCCOc2ccc(Nc3ncc(F)c(Nc4ccccc4NS(C)(=O)=O)n3)cc2)CC1 [Example 91, N-(2-(5-fluoro-2-(4-(3-(4-methylpiperazin-1-yl)propoxy)phenylamino)pyrimidin-4-ylamino)phenyl)methanesulfonamide]
< 100 nM	100 to 1000 nM	CS(=O)(=O)Nc1ccccc1Nc1nc(Nc2cccc(OCC3CCNCC3)c2)ncc1Cl [Example 129, N-(2-(5-chloro-2-(3-(piperidin-4-ylmethoxy)phenylamino)pyrimidin-4-ylamino)phenyl)methanesulfonamide]
100 to 1000 nM	100 to 1000 nM	COc1cc(Nc2ncc(F)c(Nc3cccc(C)c3NS(C)(=O)=O)n2)cc(OC)c1OC [Example 116, N-(2-(5-fluoro-2-(3,4,5-trimethoxyphenylamino)pyrimidin-4-ylamino)-6-methylphenyl)methanesulfonamide]
< 100 nM	< 100 nM	CN1CCN(CCCOc2cccc(Nc3ncc(Cl)c(Nc4ccccc4NS(C)(=O)=O)n3)c2)CC1 [Example 135]
100 to 1000 nM	100 to 1000 nM	CCNC(=O)COc1cccc(Nc2ncc(F)c(Nc3ccccc3NS(C)(=O)=O)n2)c1 [Example 101, N-ethyl-2-(3-(5-fluoro-4-(2-(methylsulfonamido)phenylamino)pyrimidin-2-ylamino)phenoxy)acetamide]
100 to 1000 nM	< 100 nM	CS(=O)(=O)Nc1ccccc1Nc1nc(Nc2ccc(NC(=O)CN3CCCC3)cc2)ncc1Cl [Example 132, N-(4-(5-chloro-4-(2-(methylsulfonamido)phenylamino)pyrimidin-2-ylamino)phenyl)-2-(pyrrolidin-1-yl)acetamide]
100 to 1000 nM	100 to 1000 nM	CS(=O)(=O)Nc1ccccc1Nc1nc(Nc2cccc(O)c2)ncc1F [Example 76, N-(2-(5-fluoro-2-(3-hydroxyphenylamino)pyrimidin-4-ylamino)phenyl)methanesulfonamide]
100 to 1000 nM	< 100 nM	CCN(c1ccccc1Nc1nc(Nc2cc(OC)c(OC)c(OC)c2)ncc1F)S(C)(=O)=O [Example 154, N-ethyl-N-(2-(5-fluoro-2-(3,4,5-trimethoxyphenylamino)pyrimidin-4-ylamino)phenyl)methanesulfonamide]
< 100 nM	< 100 nM	COc1cc(Nc2ncc(F)c(Nc3ccc4c(c3NS(C)(=O)=O)OCCO4)n2)cc(OC)c1OC [Example 167, N-(6-(5-fluoro-2-(3,4,5-trimethoxyphenylamino)pyrimidin-4-ylamino)-2,3-dihydrobenzo[b][1,4]dioxin-5-yl)methanesulfonamide]
100 to 1000 nM	100 to 1000 nM	COc1cc(Nc2ncc(F)c(Nc3ccccc3NS(C)(=O)=O)n2)cc(OC)c1OC [Example 1, N-(2-(5-fluoro-2-(3,4,5-trimethoxyphenylamino)pyrimidin-4-ylamino)phenyl)methanesulfonamide]
< 100 nM	100 to 1000 nM	COc1cc(Nc2ncc(F)c(Nc3cccc(C)c3NS(C)(=O)=O)n2)cc(OC(C)C)c1OC [Example 118, N-(2-(5-fluoro-2-(3-isopropoxy-4,5-dimethoxyphenylamino)pyrimidin-4-ylamino)-6-methylphenyl)methanesulfonamide]
100 to 1000 nM	< 100 nM	COc1ccc(Nc2ncc(Cl)c(Nc3ccccc3NS(C)(=O)=O)n2)cc1 [Example 139, N-(2-(5-chloro-2-(4-methoxyphenylamino)pyrimidin-4-ylamino)phenyl)methanesulfonamide hydrochloride]
100 to 1000 nM	100 to 1000 nM	COc1cc(Nc2ncc(F)c(Nc3ccc(N4CCOCC4)cc3NS(C)(=O)=O)n2)cc(OC)c1OC [Example 171, N-(2-(5-fluoro-2-(3,4,5-trimethoxyphenylamino)pyrimidin-4-ylamino)-5-morpholinophenyl)methanesulfonamide]
100 to 1000 nM	100 to 1000 nM	CN(C)c1ccc(Nc2ncc(F)c(Nc3ccccc3NS(C)(=O)=O)n2)cc1 [Example 7, N-(2-(2-(4-(dimethylamino)phenylamino)-5-fluoropyrimidin-4-ylamino)phenyl)methanesulfonamide]
< 100 nM	100 to 1000 nM	CCOc1cc(Nc2ncc(F)c(Nc3cccc(C)c3NS(C)(=O)=O)n2)cc(OC)c1OC [Example 117, N-(2-(2-(3-ethoxy-4,5-dimethoxyphenylamino)-5-fluoropyrimidin-4-ylamino)-6-methylphenyl)methanesulfonamide]
100 to 1000 nM	100 to 1000 nM	COc1cc(Nc2ncc(F)c(Nc3ccccc3NS(C)(=O)=O)n2)cc(OC)c1 [Example 37, N-(2-(2-(3,5-dimethoxyphenylamino)-5-fluoropyrimidin-4-ylamino)phenyl)methanesulfonamide]
100 to 1000 nM	100 to 1000 nM	COc1cc(Nc2ncc(F)c(Nc3cccc(C(C)C)c3NS(C)(=O)=O)n2)cc(OC)c1OC [Example 161, N-(2-(5-fluoro-2-(3,4,5-trimethoxyphenylamino)pyrimidin-4-ylamino)-6-isopropylphenyl)methanesulfonamide]
< 100 nM	< 100 nM	CS(=O)(=O)Nc1ccccc1Nc1nc(Nc2cccc(OCCN3CCCC3)c2)ncc1Cl [Example 140, N-(2-(5-chloro-2-(3-(2-(pyrrolidin-1-yl)ethoxy)phenylamino)pyrimidin-4-ylamino)phenyl)methanesulfonamide]
< 100 nM	100 to 1000 nM	CN1CCCCC1COc1cccc(Nc2ncc(Cl)c(Nc3ccccc3NS(C)(=O)=O)n2)c1 (stereo not shown) [Example 145, N-(2-(5-chloro-2-(3-((1-methylpiperidin-2-yl)methoxy)phenylamino)pyrimidin-4-ylamino)phenyl)methanesulfonamide]
< 100 nM	< 100 nM	COc1cc(Nc2ncc(Cl)c(Nc3cccc(C)c3NS(C)(=O)=O)n2)cc(OC)c1OC [Example 160, N-(2-(5-chloro-2-(3,4,5-trimethoxyphenylamino)pyrimidin-4-ylamino)-6-methylphenyl)methanesulfonamide]
< 100 nM	< 100 nM	CS(=O)(=O)Nc1ccccc1Nc1nc(Nc2cccc(OCCN3CCCCC3)c2)ncc1Cl [Example 124, N-(2-(5-chloro-2-(3-(2-(piperidin-1-yl)ethoxy)phenylamino)pyrimidin-4-ylamino)phenyl)methanesulfonamide]
100 to 1000 nM	100 to 1000 nM	CS(=O)(=O)Nc1ccccc1Nc1nc(Nc2ccc(OCCCN3CCCCC3)cc2)ncc1F [Example 90]
100 to 1000 nM	< 100 nM	CS(=O)(=O)Nc1ccccc1Nc1nc(Nc2cccc(OCCN3CCCC3=O)c2)ncc1Cl [Example 130, N-(2-(5-chloro-2-(3-(2-(2-oxopyrrolidin-1-yl)ethoxy)phenylamino)pyrimidin-4-ylamino)phenyl)methanesulfonamide]
100 to 1000 nM	100 to 1000 nM	CS(=O)(=O)Nc1ccccc1Nc1nc(Nc2ccc3cn[nH]c3c2)ncc1F [Example 32, N-(2-(2-(1H-indazol-6-ylamino)-5-fluoropyrimidin-4-ylamino)phenyl)methanesulfonamide]

From patent US20110098288A1, “SULFONAMIDES AS ZAP-70 INHIBITORS” (priority 2008, published 2011)
